Common to all, as to type: cell-based
In experiment [1] the target is T1, GLP-1R (Homo sapiens, UniProt P43220). In words: HitHunter cAMP assay (GLP-1R). The following applies: cAMP; for EC50: EC50 GLP-1R/nM; for Emax: read-out: (Emax) GLP-1R. The method, boiled down:
(§1)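 Cells were resuspended in HBSS plus HEPES, IBMX (625 μM) and BSA, then dispensed with antibody at 10,000 per well. Agonists followed as 22-point twofold series, 30 min at room temperature. Antibody reagent and detection steps ran 1 h and overnight in the dark before luminescence.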

Experiment [2] has as its target T1, GLP-1R. In words: PathHunter β-arrestin assay. An outline of the steps: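 Agonist concentration–response (22 points, 2-fold steps, duplicates) was run on cells plated the previous day in BSA-supplemented (0.2%) medium. Stimulation lasted 90 min at 37 °C, followed by a 3 h dark incubation with detection reagent at room temperature and a luminescence read.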
The next experiment deals with T2, GIP-R (Homo sapiens, UniProt P48546).
T2 sequence (P48546 22-466): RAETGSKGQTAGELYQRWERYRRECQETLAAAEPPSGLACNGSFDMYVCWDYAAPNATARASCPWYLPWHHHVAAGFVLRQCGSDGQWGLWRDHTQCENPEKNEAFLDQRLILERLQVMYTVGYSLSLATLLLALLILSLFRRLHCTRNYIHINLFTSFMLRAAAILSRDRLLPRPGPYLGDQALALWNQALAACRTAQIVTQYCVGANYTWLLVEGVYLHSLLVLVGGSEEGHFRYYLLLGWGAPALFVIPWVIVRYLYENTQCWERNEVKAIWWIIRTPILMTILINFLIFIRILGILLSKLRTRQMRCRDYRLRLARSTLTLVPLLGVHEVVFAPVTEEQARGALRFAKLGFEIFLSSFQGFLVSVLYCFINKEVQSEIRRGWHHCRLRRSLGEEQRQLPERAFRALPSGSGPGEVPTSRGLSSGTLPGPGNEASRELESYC
In words: HitHunter cAMP assay (GIP-R). The following applies: cAMP; for EC50: EC50 GIP-R/nM; for Emax: read-out: (Emax) GIP-R. The method, boiled down:
as §1

Read-outs that look alike come from different tables or passages of the source. Where only a bound is given, the exact number is not on record here.

T1 sequence (P43220 24-463): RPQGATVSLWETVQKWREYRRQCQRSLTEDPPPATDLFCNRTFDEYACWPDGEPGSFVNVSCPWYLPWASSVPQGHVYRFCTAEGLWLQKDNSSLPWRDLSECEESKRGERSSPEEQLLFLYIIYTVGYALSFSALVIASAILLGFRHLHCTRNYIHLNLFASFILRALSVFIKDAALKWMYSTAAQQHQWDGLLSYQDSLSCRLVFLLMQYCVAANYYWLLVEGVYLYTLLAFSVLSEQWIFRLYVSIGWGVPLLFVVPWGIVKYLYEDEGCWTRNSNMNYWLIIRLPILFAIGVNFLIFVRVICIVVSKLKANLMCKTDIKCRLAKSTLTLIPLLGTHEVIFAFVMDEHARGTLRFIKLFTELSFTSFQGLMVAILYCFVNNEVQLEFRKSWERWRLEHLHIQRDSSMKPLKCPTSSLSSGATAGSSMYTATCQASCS

`CCCCCCCCCCCCCCCC(=O)N[C@@H](CCC(=O)NCCCC[C@H](NC(=O)[C@H](CO)NC(=O)[C@@H]1CCCN1C(=O)[C@@H]1CCCN1C(=O)[C@@H]1CCCN1C(=O)[C@H](C)NC(=O)CNC(=O)[C@H](CO)NC(=O)[C@H](CO)NC(=O)[C@@H]1CCCN1C(=O)CNC(=O)CNC(=O)[C@H](C)NC(=O)[C@H](CC(C)C)NC(=O)[C@H](CC(C)C)NC(=O)[C@H](Cc1c[nH]c2ccccc12)NC(=O)[C@H](CC(N)=O)NC(=O)[C@@H](NC(=O)[C@H](Cc1ccccc1)NC(=O)[C@H](CCC(=O)O)NC(=O)C(C)(C)NC(=O)[C@H](C)NC(=O)[C@H](C)NC(=O)[C@H](CCC(N)=O)NC(=O)[C@H](CCCCN)NC(=O)[C@H](CC(=O)O)NC(=O)[C@H](CC(C)C)NC(=O)[C@H](Cc1ccc(O)cc1)NC(=O)[C@@H](NC(=O)[C@H](CO)NC(=O)[C@H](Cc1ccc(O)cc1)NC(=O)[C@H](CC(=O)O)NC(=O)[C@H](CO)NC(=O)[C@@H](NC(=O)[C@H](Cc1ccccc1)NC(=O)[C@@H](NC(=O)CNC(=O)[C@H](CCC(=O)O)NC(=O)CSCC(=O)NCCN1CC[C@H](OC)C1=O)[C@@H](C)O)[C@@H](C)O)[C@@H](C)CC)C(C)C)C(N)=O)C(=O)O` [Compound 14]: the EC50 on GLP-1R [1] (Table 3) was 0.1 to 1 nM; at GLP-1R [1] (Table 3A), 0.1 to 1 nM; on GLP-1R [2], greater than 1000 nM; on GIP-R (Table 3), 10 to 100 nM. Further, the Emax on GLP-1R [1] (Table 3) is 81%; at GLP-1R [1] (Table 3A), 81%; at GIP-R (Table 3), less than 10%.

Turning to `CC[C@H](C)[C@H](NC(=O)[C@H](CO)NC(=O)[C@H](Cc1ccc(O)cc1)NC(=O)[C@H](CC(=O)O)NC(=O)[C@H](CO)NC(=O)[C@@H](NC(=O)[C@H](Cc1ccccc1)NC(=O)[C@@H](NC(=O)CNC(=O)[C@H](CCC(=O)O)NC(=O)CSCC(=O)NCCN1Cc2ccccc2C1=O)[C@@H](C)O)[C@@H](C)O)C(=O)N[C@@H](Cc1ccc(O)cc1)C(=O)N[C@@H](CC(C)C)C(=O)N[C@@H](CC(=O)O)C(=O)N[C@@H](CCCCN)C(=O)N[C@@H](CCC(N)=O)C(=O)N[C@@H](C)C(=O)N[C@@H](C)C(=O)NC(C)(C)C(=O)N[C@@H](CCC(=O)O)C(=O)N[C@@H](Cc1ccccc1)C(=O)N[C@H](C(=O)N[C@@H](CC(N)=O)C(=O)N[C@@H](Cc1c[nH]c2ccccc12)C(=O)N[C@@H](CC(C)C)C(=O)N[C@@H](CC(C)C)C(=O)N[C@@H](C)C(=O)NCC(=O)NCC(=O)N1CCC[C@H]1C(=O)N[C@@H](CO)C(=O)N[C@@H](CO)C(=O)NCC(=O)N[C@@H](C)C(=O)N1CCC[C@H]1C(=O)N1CCC[C@H]1C(=O)N1CCC[C@H]1C(=O)N[C@@H](CO)C(=O)N[C@@H](CCCCN)C(N)=O)C(C)C` [Compound 152], the EC50 on GLP-1R [1] (Table 3) is 10 to 100 nM; on GLP-1R [1] (Table 3A), 10 to 100 nM; at GLP-1R [2] it was greater than 1000 nM; on GIP-R (Table 3), 1 to 10 nM; on GIP-R (Table 3A), 1 to 10 nM. For the same molecule, the Emax was 85% on GLP-1R [1] (Table 3), 85% on GLP-1R [1] (Table 3A), 103% on GIP-R (Table 3) and 103% at GIP-R (Table 3A).

Source of the values: patent US20260176320A1, “MODULATORS OF G-PROTEIN COUPLED RECEPTORS” (priority 2018, published 2026).
